Assay results from patent US20100297676A1, “METHODS FOR DIAGNOSIS, PROGNOSIS AND METHODS OF TREATMENT” (Nodality, Inc., priority 2009, published 2010).

Experiments:
healthy B cells = conditions: B cells from healthy donors; anti-μ 10 μg/ml plus H2O2 […], 10 min
Description: Cryopreserved PBMCs, 23 from CLL patients and 7 from healthy donors, were rapidly thawed in a 37° C. water bath. 1 mL of pre-warmed thawing media (PBS 1% FBS, 2 mM EDTA) was added dropwise to each of the cryovials. Thawed cells were transferred to a tube containing 8 mL thawing media. Tubes were inverted and centrifuged at 200×g for 8 minutes at room temperature. Supernatant was decanted, cell pellets were resuspended in 1 mL RPMI 1640 1% FCS and filtered over 70 um nylon mesh (BD Falcon) to remove cell clumps and debris. 11 mL of additional RPMI 1640 1% FCS was added to the samples to wash. […]
Supernatant was aspirated and each sample was resuspended in 4 mL of PBS. […] The supernatant was decanted and all samples were resuspended at a density of 2.4×10^6 cells/mL, using a volume specific to the number of cells determined from the cell counting procedure. […]
“Daughter” plates designated for treatment with modulators for or apoptosis inducing agents were generated from the “mother” plate with the use of a Liquidator 96-well pipettor (Rainin) Plates designated for treatment with modulators for phospho-readouts received 250 uL (6.0×10^5 cells) of cell suspension per well, and plates designated for treatment with apoptosis inducing agents received 333 uL (8.0×10^5 cells) of cell suspension per well. […]
Antibody cocktails for signaling and apoptosis readouts were prepared in FACS Buffer. […]

CLL cells = conditions: in vitro treatment; Buchner 2009, Gobessi 2009; cited from earlier work

Row | Structure (SMILES) | effect of H2O2 on anti-μ-mediated BCR signaling (healthy B cells) | apoptotic response of CLL cells (CLL cells)
1 | OO [H2O2, hydrogen peroxide] | further potentiated | 
2 | COc1cc(Nc2ncc(F)c(Nc3ccc4c(n3)NC(=O)C(C)(C)O4)n2)cc(OC)c1OC [R406] |  | mediated an apoptotic response
